Measured values as given in patent US8883792B2, “Substituted isoquinoline derivative” (D. Western Therapeutics Institute, Inc., priority 2010, dated 2014).
Where a name gives a salt, the structure may show the parent alone.

Experiments:
[1] = system: rabbits (New Zealand White); assay: Ocular hypotensive effect in rabbits; assay type: in vivo, rabbit; conditions: male New Zealand White rabbits, 0.04 mL eye drop, concentration of 1% (w/v) or lower, maximum ocular hypotensive rate vs vehicle-treated contralateral eye
Outline: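 Male New Zealand White rabbits (3–6 per group) received 0.04 mL compound solution (pH 7.0 phosphate/NaCl vehicle or 2% boric acid) in one eye and vehicle in the other. IOP measured by rebound tonometer before dosing and over time; ocular hypotensive rate taken as treated-eye IOP relative to vehicle-eye IOP.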

[2] = system: spontaneously hypertensive rats (SHR/Izm); assay: Blood pressure lowering effect in spontaneously hypertensive rats; assay type: in vivo; conditions: Rattus norvegicus, ip, male SHR/Izm rats, intraperitoneal, measured over time, read-out: lowered the systolic blood pressures by up to, compared with the value before administration
Procedure: The compound of the present invention was intraperitoneally administered to spontaneously hypertensive rats (SHR/Izm, sex: male, 4 to 6 rats per group) and evaluated for its blood pressure lowering effect. The compounds of Examples 5, 23, 25, 35, 36, 53, 58, 83, 84, 86, 87, and 90 were used as test compounds.
Each test compound was dissolved in saline and diluted to prepare a test compound solution with a predetermined concentration.
The test compound was intraperitoneally administered at a dose of 10 mg/kg to the animals, and their blood pressures and pulse rates were measured over time using Softron Indirect Blood Pressure Meter BP-98A.

Row | Compound | Ocular hypotensive activity [1] | inhibition in vivo at 10 mg/kg [2] [%]
1 | CCCCNC[C@@H](C)NS(=O)(=O)c1ccc2cnccc2c1 [Example 5, (R)—N-{1-(butylamino)propan-2-yl}isoquinoline-6-sulfonamide dihydrochloride] | ++ (maximum ocular hypotensive rate of 15% or more) | ≤ 16
2 | C[C@H](CNCCc1ccccc1)NS(=O)(=O)c1ccc2cnccc2c1 [Example 23, (R)—N-{1-(phenethylamino)propan-2-yl}isoquinoline-6-sulfonamide dihydrochloride] | ++ (maximum ocular hypotensive rate of 15% or more) | ≥ 30
3 | C[C@H](CNC[C@H](C)c1ccccc1)NS(=O)(=O)c1ccc2cnccc2c1 [Example 25, N—[(R)-1-{(R)-2-phenylpropylamino}propan-2-yl]isoquinoline-6-sulfonamide dihydrochloride] | ++ (maximum ocular hypotensive rate of 15% or more) | ≥ 30
4 | C[C@H](CNCCCCc1ccccc1)NS(=O)(=O)c1ccc2cnccc2c1 [Example 35, (R)—N-{1-(4-phenylbutylamino)propan-2-yl}isoquinoline-6-sulfonamide dihydrochloride] | ++ (maximum ocular hypotensive rate of 15% or more) | ≤ 20
5 | C[C@H](CNCCc1c[nH]c2ccccc12)NS(=O)(=O)c1ccc2cnccc2c1.Cl [Example 36, (R)—N-[1-{2-(1H-indol-3-yl)ethylamino}propan-2-yl]isoquinoline-6-sulfonamide hydrochloride] | ++ (maximum ocular hypotensive rate of 15% or more) | ≥ 30
6 | C[C@H](CNCCc1ccc(F)cc1)NS(=O)(=O)c1ccc2cnccc2c1.Cl [Example 53, (R)—N-{1-(4-fluorophenethylamino)propan-2-yl}isoquinoline-6-sulfonamide hydrochloride] | ++ (maximum ocular hypotensive rate of 15% or more) | ≥ 30
7 | Cc1ccc(CCNC[C@@H](C)NS(=O)(=O)c2ccc3cnccc3c2)cc1.Cl [Example 58, (R)—N-{1-(4-methylphenethylamino)propan-2-yl}isoquinoline-6-sulfonamide hydrochloride] | ++ (maximum ocular hypotensive rate of 15% or more) | ≥ 30
8 | C[C@H](CNC[C@@H](O)c1ccccc1)NS(=O)(=O)c1ccc2cnccc2c1.Cl [Example 83, N—[(R)-1-{(S)-2-hydroxy-2-phenylethylamino}propan-2-yl]isoquinoline-6-sulfonamide hydrochloride] | ++ (maximum ocular hypotensive rate of 15% or more) | ≥ 30
9 | C[C@H](CNC[C@@H](O)c1ccc(F)cc1)NS(=O)(=O)c1ccc2cnccc2c1.Cl [Example 84, N—[(R)-1-{(S)-2-(4-fluorophenyl)-2-hydroxyethylamino}propan-2-yl]isoquinoline-6-sulfonamide hydrochloride] | ++ (maximum ocular hypotensive rate of 15% or more) | ≤ 20
10 | C[C@H](CNC[C@@](C)(O)c1ccccc1)NS(=O)(=O)c1ccc2cnccc2c1.Cl [Example 86, N—[(R)-1-{(S)-2-hydroxy-2-phenylpropylamino}propan-2-yl]isoquinoline-6-sulfonamide hydrochloride] | ++ (maximum ocular hypotensive rate of 15% or more) | ≥ 30
11 | C[C@H](CNC[C@H](O)c1ccccc1)NS(=O)(=O)c1ccc2cnccc2c1.Cl [Example 87, N—[(R)-1-{(R)-2-hydroxy-2-phenylethylamino}propan-2-yl]isoquinoline-6-sulfonamide hydrochloride] | ++ (maximum ocular hypotensive rate of 15% or more) | ≤ 20
12 | C[C@H](CNC[C@@H](O)c1ccsc1)NS(=O)(=O)c1ccc2cnccc2c1.Cl [Example 90, N—[(R)-1-{(S)-2-hydroxy-2-(thiophen-3-yl)ethylamino}propan-2-yl]isoquinoline-6-sulfonamide hydrochloride] | ++ (maximum ocular hypotensive rate of 15% or more) | ≤ 20
13 | C[C@H](CNCCc1ccccc1)NS(=O)(=O)c1ccc2c(O)nccc2c1.Cl [Example 110, (R)—N-{1-(phenethylamino)propan-2-yl}-1-hydroxyisoquinoline-6-sulfonamide hydrochloride] | ++ (maximum ocular hypotensive rate of 15% or more) | –
14 | C[C@H](CNCCc1ccccc1)NS(=O)(=O)c1ccc2c(SCCN)nccc2c1 [Example 111, (R)-1-(2-aminoethylthio)-N-{1-(phenethylamino)propan-2-yl}isoquinoline-6-sulfonamide trihydrochloride] | + (maximum ocular hypotensive rate of 5% or more and less than 15%) | –
15 | Cc1cncc2ccc(S(=O)(=O)N[C@H](C)CNCCc3ccccc3)cc12.Cl [Example 112, (R)—N-{1-(phenethylamino)propan-2-yl}-4-methyl-isoquinoline-6-sulfonamide hydrochloride] | ++ (maximum ocular hypotensive rate of 15% or more) | –
16 | Cc1cncc2ccc(S(=O)(=O)N[C@H](C)CNCCc3ccc(F)cc3)cc12.Cl [Example 113, (R)—N-{1-(4-fluorophenethylamino)propan-2-yl}-4-methyl-isoquinoline-6-sulfonamide hydrochloride] | ++ (maximum ocular hypotensive rate of 15% or more) | –
17 | C[C@H](CNCCc1ccccc1)NS(=O)(=O)c1ccc2cncc(-c3ccsc3)c2c1 [Example 115, (R)—N-{1-(phenethylamino)propan-2-yl}-4-(thiophen-3-yl) isoquinoline-6-sulfonamide dihydrochloride] | ++ (maximum ocular hypotensive rate of 15% or more) | –
18 | N[C@H](CNS(=O)(=O)c1ccc2cnccc2c1)Cc1ccccc1 [Example 116, (S)—N-(2-amino-3-phenylpropyl)isoquinoline-6-sulfonamide dihydrochloride] | + (maximum ocular hypotensive rate of 5% or more and less than 15%) | –
19 | C[C@@H](NS(=O)(=O)c1ccc2cnccc2c1)[C@@H](N)CCCc1ccccc1 [Example 117, N-{(2R,3S)-3-amino-6-phenylhexan-2-yl)isoquinoline-6-sulfonamide hydrochloride] | ++ (maximum ocular hypotensive rate of 15% or more) | –
20 | CNC(CCc1ccccc1)C[C@@H](C)NS(=O)(=O)c1ccc2cnccc2c1 (stereo partly drawn) [Example 120, N-{(2R)-4-(methylamino)-6-phenylhexan-2-yl}isoquinoline-6-sulfonamide dihydrochloride] | ++ (maximum ocular hypotensive rate of 15% or more) | –
